Data set [1] deals with human ovarian A2780 cancer cells. Briefly: Cancer cell cytotoxicity, SRB assay. In kind it is cell-based. To be noted: 24 h exposure, 72 h recovery, SRB; read-out: A2780 IC50. The gist of the method: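 Cells plated at 5000/well were dosed on day 3 with Ir^III complexes (0.05–100 μM, from DMSO stocks diluted into saline and medium) for 24 h. After washout they grew for 72 h in fresh medium before SRB protein staining as a survival read-out. Two independent experiments of three replicates each.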
Background: The SRB assay estimates cell density from bound dye.

The test system of data set [2] is ca. 60 cell lines within nine tumour type subpanels. In kind it is cell-based. The text has this:
Six complexes, [(η^5-C5Me4C6H4C6H5)Ir(bpy)Cl]PF6 (ZL25, bpy=2,2′-bipyridine), [(η^5-C5Me4C6H5)Ir(phen)Cl]PF6 (ZL33, phen=1,10-phenanthroline), [(η^5-C5Me4C6H4C6H5) Ir(pico)Cl] (ZL43, pico=picolinate), [(η^5-C5Me5)Ir(2-phpy)Cl] (ZL47), [(η^5-C5Me4C6H4C6H5)Ir(2-phPY)(D2O)Cl] (ZL49) and [(η^5-C5Me4C6H4C6H5) Ir(phen)Cl]PF6 (ZL54), were selected by Developmental Therapeutics Program of National Cancer Institute (NCI, U.S.A.) for in vitro screening test, in which 5 complexes except ZL43 are selected for further testing. The five complexes were tested on ca. 60 cell lines within nine tumour type subpanels at five concentrations ranging from 0.01 to 100 μM.

A short description of data set [3]: Aqua adduct formation of ZL33 at chloride levels of nucleus, cytoplasm and plasma (1H NMR). Conditions: 1 mM in D2O, 310 K. In kind it is physicochemical. On the procedure:
The effects of chloride concentrations typical of blood plasma (100 mM), cell cytoplasm (22.7 mM), and cell nucleus (4 mM) on the aqueous chemistry of ZL33 was investigated. ^1H NMR spectra of ZL33 (1 mM) were recorded within 10 min of sample preparation and after incubation at 310 K for 24 h (FIG. 4). […] (pH* 6.52) or in 22.7 mM [Cl] (pH* 6.72), and only 5% of ZL33A at 4 mM [Cl] (pH* 6.89) after 10 min. No significant change was observed after 24 h, see Table 2.

Data set [4] in a line: Kinetics of hydrolysis followed by 1H NMR. In kind it is physicochemical. Conditions: for k (hydrolysis): 0.2 mM, 5% MeOD-d4/95% D2O, pH* 3. On the procedure: Kinetics for Hydrolysis. Although complexes ZL01-ZL04, ZL07, ZL38 and ZL43 hydrolyzed too rapidly to monitor by ^1H NMR, The kinetics of hydrolysis for complexes ZL25, ZL33, ZL37 and ZL54 were followed by ^1H NMR at different temperatures. For this, solutions of the complexes with a final concentration of 0.2 mM in 5% MeOD-d4/95% D2O (v/v) were prepared by dissolution of the complexes in MeOD-d4 followed by rapid dilution using D2O with a pH* of about 3 (acidified with HClO4), so that the aqua ligand was not deprotonated. ^1H NMR spectra were taken after various time intervals. The rates of hydrolysis were determined by fitting plots of concentrations (determined from ^1H NMR peak integrals) versus time to a pseudo first-order equation using ORIGIN version 7.0. The Arrhenius activation energy (Ea), activation enthalpies (ΔH^¢), and activation entropy (ΔS^‡) for compounds ZL25, ZL33, ZL37 and ZL54 were determined from the slopes of the Arrhenius and intercepts of Eyring plots.
The rates of hydrolysis of compounds ZL01-ZL04, ZL07, ZL25, ZL33, ZL37, ZL38, ZL43 and ZL54 in a 5% MeOD-d4/95% D2O were monitored by ^1H NMR at different temperature from 278 to 298 K by the observation of new peaks over time due to aqua adduct formation. Five percent MeOD was used to improve solubility, and acidic conditions (D2O, pH* 3) were used to prevent the deprotonation of the aqua complex as a secondary reaction. […] The percentage of aqua peak formation for ZL25, ZL33, ZL37 and ZL54 was plotted against time and was fitted to pseudofirst order kinetics (FIG. 3), and their halflife times were calculated (Table 1). The Arrhenius activation energy (Ea), activation enthalpy (ΔH^¢), and activation entropy (ΔS^‡) of compound ZL25, ZL33, ZL37 and ZL54 are listed in Table 4. The large negative ΔS^‡value for compound ZL54 is notable. The extent of hydrolysis at equilibrium is medium for all compounds, ranged from 30% to 60%.

Data set [5] concerns 9-ethyladenine (9-EtA). Briefly: Interactions with nucleobases: 9-EtA adduct formation (1H NMR). To be noted: 10 min; 1 mM, 1 mol equiv 9-EtA, D2O, 310 K. In kind it is binding. The method, then: Interactions with Nucleobases. The reaction of ZL01, ZL03, ZL04, ZL07, ZL25, ZL33, ZL37, ZL38, ZL43 and ZL54 and ZL33A with nucleobases typically involved addition of a solution containing 1-2 mol equiv of nucleobase in D2O, to an equilibrium solution of ZL01, ZL03, ZL04, ZL07, ZL25, ZL33, ZL37, ZL38, ZL43, ZL54 and ZL33A in a solution of 5% MeOD-d4/95% D2O (v/v). ^1H NMR spectra of these solutions were recorded at 310 K after various time intervals.
Since DNA is a potential target site for transition metal anticancer complexes,^18 nucleobase binding reactions of compounds ZL01, ZL03, ZL04, ZL07, ZL25, ZL33, ZL33A, ZL37, ZL38, ZL43 and ZL54 with nucleobase models 9-ethylguanine (9-EtG) and 9-ethyladenine (9-EtA), were investigated. Solutions of ZL01, ZL03, ZL04, ZL07, ZL25, ZL33, ZL37, ZL38, ZL43 and ZL54 (1 mM) (containing an equilibrium mixture of these complexes and their respective aqua adducts) with 1 mol equivalent of 9-EtG or 9-EtA in D2O were prepared, and ^1H NMR spectra were recorded at different time intervals.

Here are results for one compound from patent US9408853B2, “Iridium/rhodium anti-cancer compounds” (University of Warwick, priority 2010, dated 2016).

What is called pIC50 is the IC50 on a negative log10 scale, so that one unit is a factor of ten. In general, CC50 refers to the concentration that lowers cell viability or growth by half. Low values mean greater toxicity to the cells, high ones lower toxicity to the cells. Broadly, the GI50 is the concentration that inhibits growth by half.

pIC50: −log10 of the molar value.

On to `Cc1c(C)c(-c2ccccc2)[c-](C)c1C.F[P-](F)(F)(F)(F)F.[Cl-].[Ir+3].c1cnc2c(c1)ccc1cccnc12` (stereo not shown) [ZL33, [(η^5-C5Me4C6H5)Ir(phen)Cl]PF6], for which, in data set [1], the pIC50 was 5.17. In data set [2], this compound had a CC50 of 93.3 µM. Besides, in data set [2] (ca. 60 cell lines, 0.01 to 100 μM), the “Mean graph midpoint (MID) TGI” value amounted to 51.3 µM. The GI50 in data set [2] (ca. 60 cell lines, 0.01 to 100 μM, read-out: Mean graph midpoint (MID) GI50) came to 10.7 µM. Also, in data set [2] (mean graphs), the “selectivity among tumour type subpanels (in words)” value is “selective for leukemia, CNS cancer, melanoma, and prostate cancer”. Moreover, the “% aqua adduct of ZL33 (ZL33A)” value is recorded as 5% in data set [3] (4 mM NaCl, t = 10 min); 5% in data set [3] (4 mM NaCl, t = 24 h); 0% in data set [3] (22.7 mM NaCl, t = 24 h); 0% in data set [3] (100 mM NaCl, t = 24 h). Besides, the “k (hydrolysis)” value in data set [4] (278 K) was 0.033 min⁻¹; in data set [4] (283 K), 0.0693 min⁻¹; in data set [4] (288 K), 0.1264 min⁻¹. Further, the “Ea (Arrhenius activation energy of hydrolysis)” value in data set [4] (from Arrhenius plot) turned out to be 20.5 kcal/mol. The “ΔH^‡ (activation enthalpy of hydrolysis)” value in data set [4] (from Eyring plot) turned out to be 20.06 kcal/mol. For the same compound, the “ΔS^‡ (activation entropy of hydrolysis)” value in data set [4] (from Eyring plot) came to 29.3 J K^−1mol^−1. For the same compound, in data set [5], the “Reaction with 9-EtA, extent of adduct formation” value is 0%.
